Measured values reported in patent publication US20100120778A1, “QUINOXALINE-BASED LXR MODULATORS” (Wyeth, priority 2008, published 2010).

Assays:
[1] = biological target: T1, human LXRβ (Homo sapiens, UniProt P55055); assay: Ligand-binding test procedure for human LXRβ (3H T0901317 tracer, flash plates); conditions: biotinylated hLXRβ, tracer 3H T0901317, +4° C. over night
T1 construct: biotin (biotinylated); made in house; host or cells: E. coli
T1 sequence (P55055 1-460): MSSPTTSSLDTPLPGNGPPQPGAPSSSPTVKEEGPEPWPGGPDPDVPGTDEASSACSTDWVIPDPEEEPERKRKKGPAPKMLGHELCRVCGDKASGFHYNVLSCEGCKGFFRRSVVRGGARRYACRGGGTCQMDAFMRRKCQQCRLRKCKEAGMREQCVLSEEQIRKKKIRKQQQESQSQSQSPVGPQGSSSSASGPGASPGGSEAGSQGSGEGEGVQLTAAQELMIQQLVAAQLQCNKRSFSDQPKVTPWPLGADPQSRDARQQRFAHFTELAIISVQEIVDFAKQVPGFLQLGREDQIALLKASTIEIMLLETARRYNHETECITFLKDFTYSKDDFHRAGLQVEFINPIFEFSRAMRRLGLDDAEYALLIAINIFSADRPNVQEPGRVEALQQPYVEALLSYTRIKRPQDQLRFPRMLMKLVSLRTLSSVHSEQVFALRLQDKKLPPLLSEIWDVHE

[2] = biological target: T2, human LXRα (Homo sapiens, UniProt Q13133); assay: Ligand-binding test procedure for human LXRα (3H T0901317 tracer, flash plates); conditions: biotinylated hLXRα, tracer 3H T0901317, +4° C. over night
T2 construct: biotin (biotinylated); made in house; host or cells: E. coli
T2 sequence (Q13133 1-447): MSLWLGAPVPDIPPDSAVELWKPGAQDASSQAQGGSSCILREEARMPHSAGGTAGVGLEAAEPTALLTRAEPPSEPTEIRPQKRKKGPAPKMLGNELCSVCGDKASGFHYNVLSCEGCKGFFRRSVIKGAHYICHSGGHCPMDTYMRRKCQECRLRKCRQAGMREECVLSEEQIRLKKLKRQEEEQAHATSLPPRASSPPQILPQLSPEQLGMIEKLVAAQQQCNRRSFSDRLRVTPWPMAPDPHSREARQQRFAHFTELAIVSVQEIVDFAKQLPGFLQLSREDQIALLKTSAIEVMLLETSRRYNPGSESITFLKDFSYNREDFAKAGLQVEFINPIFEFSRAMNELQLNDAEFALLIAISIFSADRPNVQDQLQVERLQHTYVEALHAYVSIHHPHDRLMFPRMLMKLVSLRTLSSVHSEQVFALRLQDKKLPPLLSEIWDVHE
Method: II. Ligand-Binding Test Procedure for Human LXRα.
Receptor source: E. coli extract from cells expressing biotinylated hLXRα. Extract was made in a similar buffer as above, but with 50 mM TRIS.
Washed streptavidin and coated flash plates with wash buffer. Diluted receptor extract to give Bmax˜4000 cpm and add to the wells. Wrapped the plates in aluminum foil and stored them at +4° C. over night.
Made a dilution series in DMSO of the test ligands. Made a 5 nM solution of the radioactive tracer in buffer. Mixed 250 μl diluted tracer with 5 μl of the test ligand from each concentration of the dilution series. Washed the receptor-coated flash plates. Added 200 μl per well of the ligand/radiolabel mixture to the receptor-coated flash plates. Wrapped the plates in aluminum foil and incubate at +4° C. over night.
Aspirated wells, and wash the flashed plates. Sealed the plate. Measured the remaining radioactivity in the plate.

| SMILES | IC50 [1] [nM] | IC50 [2] [nM] |
| --- | --- | --- |
| Cc1nc2c(C(F)(F)F)cccc2nc1-c1ccc(-c2cncc(S(C)(=O)=O)c2)cc1 [Example 74, 3-methyl-2-{4-[5-(methylsulfonyl)pyridin-3-yl]phenyl}-5-(trifluoromethyl)quinoxaline] | > 1000 | > 1000 |
| CS(=O)(=O)c1cccc(Oc2cccc(-c3cnc4c(Cl)cccc4n3)c2)c1 [Example 8, 5-chloro-2-{3-[3-(methylsulfonyl)phenoxy]phenyl}quinoxaline] | 1650 | > 1000 |
| CCS(=O)(=O)c1cccc(-c2cccc(Oc3nc4cccc(Cl)c4nc3C)c2)c1 [Example 81, 5-chloro-2-{[3′-(ethylsulfonyl)biphenyl-3-yl]oxy}-3-methylquinoxaline] | 240 | > 1000 |
| CS(=O)(=O)c1cccc(-c2ccc(Oc3cnc4c(Cl)cccc4n3)cc2)c1 [Example 79, 5-chloro-2-{[3′-(methylsulfonyl)biphenyl-4-yl]oxy}quinoxaline] | > 1000 | > 1000 |
| Cc1nc2cccc(C(F)(F)F)c2nc1-c1cc(Oc2cc(F)cc(S(C)(=O)=O)c2)ccc1Cl [Example 64, 3-{2-chloro-5-[3-fluoro-5-(methylsulfonyl)phenoxy]phenyl}-2-methyl-5-(trifluoromethyl)-quinoxaline] | 89 | 638 |
| Cc1nc2cccc(Cl)c2nc1-c1cccc(Oc2cccc(S(C)(=O)=O)c2)c1 [Example 10, 5-chloro-2-methyl-3-{3-[3-(methylsulfonyl)phenoxy]phenyl}quinoxaline] | 2210 | > 1000 |
| Cc1nc2c(C(F)(F)F)cccc2nc1-c1cc(Oc2cccc(S(=O)(=O)C(C)C)c2)ccc1Cl [Example 57, 2-(2-chloro-5-{3-[(1-methylethyl)sulfonyl]phenoxy}phenyl)-3-methyl-5-(trifluoromethyl)-quinoxaline] | 78.9 | 947 |
| Cc1nc2c(C(F)(F)F)cccc2nc1-c1cc(Oc2cc(F)cc(S(C)(=O)=O)c2)ccc1Cl [Example 59, 2-{2-chloro-5-[3-fluoro-5-(methylsulfonyl)phenoxy]phenyl}-3-methyl-5-(trifluoromethyl)-quinoxaline] | 32 | 249 |
| CCS(=O)(=O)c1cccc(Oc2ccc(Cl)c(-c3nc4cccc(C(F)(F)F)c4nc3C)c2)c1 [Example 56, 2-{2-chloro-5-[3-(ethylsulfonyl)phenoxy]phenyl}-3-methyl-5-(trifluoromethyl)quinoxaline] | 12 | 435 |
| Cc1nc2c(C(F)(F)F)cccc2nc1-c1cc(Oc2cccc(S(C)(=O)=O)c2)ccc1Cl [Example 36, 2-{2-chloro-5-[3-(methylsulfonyl)phenoxy]phenyl}-3-methyl-5-(trifluoromethyl)quinoxaline] | 19.5 | 292 |
| Cc1nc2cccc(C(F)(F)F)c2nc1-c1cc(Oc2cc(Cl)cc(S(C)(=O)=O)c2)ccc1Cl [Example 65, 3-{2-chloro-5-[3-chloro-5-(methylsulfonyl)phenoxy]phenyl}-2-methyl-5-(trifluoromethyl)-quinoxaline] | 453 | > 1000 |
| Cc1nc2cccc(C(F)(F)F)c2nc1-c1cc(Oc2cccc(S(C)(=O)=O)c2)ccc1Cl [Example 37, 3-{2-chloro-5-[3-(methylsulfonyl)phenoxy]phenyl}-2-methyl-5-(trifluoromethyl)quinoxaline] | 37 | 557 |
| Cc1nc2cccc(C(F)(F)F)c2nc1-c1cc(Oc2cccc(S(=O)(=O)C(C)C)c2)ccc1Cl [Example 62, 3-(2-chloro-5-{3-[(1-methylethyl)sulfonyl]phenoxy}phenyl)-2-methyl-5-(trifluoromethyl)quinoxaline] | 38 | 876 |
| Cc1nc2c(C(F)(F)F)cccc2nc1-c1cccc(Oc2cccc(S(C)(=O)=O)c2)c1 [Example 2, 3-methyl-2-{3-[3-(methylsulfonyl)phenoxy]phenyl}-5-(trifluoromethyl)quinoxaline] | 127 | 1020 |
| CS(=O)(=O)c1cccc(Oc2cccc(-c3cnc4cccc(C(F)(F)F)c4n3)c2)c1 [Example 9, 2-{3-[3-(methylsulfonyl)phenoxy]phenyl}-8-(trifluoromethyl)quinoxaline] | 1960 | > 1000 |
| Cc1nc2cccc(C(F)(F)F)c2nc1-c1ccc(Oc2cccc(S(C)(=O)=O)c2)cc1 [Example 7, 2-methyl-3-{4-[3-(methylsulfonyl)phenoxy]phenyl}-5-(trifluoromethyl)quinoxaline] | 1550 | > 1000 |
| Cc1nc2c(C(F)(F)F)cccc2nc1-c1cc(Oc2cc(Cl)cc(S(C)(=O)=O)c2)ccc1Cl [Example 60, 2-{2-chloro-5-[3-chloro-5-(methylsulfonyl)phenoxy]phenyl}-3-methyl-5-(trifluoromethyl)-quinoxaline] | 159 | > 1000 |
| Cc1nc2c(Cl)cccc2nc1-c1cccc(Oc2cccc(S(C)(=O)=O)c2)c1 [Example 5, 5-chloro-3-methyl-2-{3-[3-(methylsulfonyl)phenoxy]phenyl}quinoxaline] | 390 | > 1000 |
| Cc1nc2cccc(C(F)(F)F)c2nc1-c1cccc(Oc2cccc(S(C)(=O)=O)c2)c1 [Example 3, 2-methyl-3-{3-[3-(methylsulfonyl)phenoxy]phenyl}-5-(trifluoromethyl)quinoxaline] | 251 | 1290 |
| Cc1nc2cccc(C#N)c2nc1-c1ccc(-c2cccc(S(C)(=O)=O)c2)cc1 [Example 72, 2-methyl-3-[3′-(methylsulfonyl)biphenyl-4-yl]quinoxaline-5-carbonitrile] | 3020 | > 1000 |
| Cc1nc2c(Cl)cccc2nc1Oc1ccc(-c2cccc(S(C)(=O)=O)c2)cc1 [Example 82, 5-chloro-3-methyl-2-{[3′-(methylsulfonyl)biphenyl-4-yl]oxy}quinoxaline] | 1030 | > 1000 |
| CCS(=O)(=O)c1cccc(-c2ccc(Oc3nc4cccc(Cl)c4nc3C)cc2)c1 [Example 83, 5-chloro-2-{[3′-(ethylsulfonyl)biphenyl-4-yl]oxy}-3-methylquinoxaline] | > 1000 | > 1000 |
| Cc1nc2c(C(F)(F)F)cccc2nc1-c1ccc(Oc2cccc(S(C)(=O)=O)c2)cc1 [Example 12, 3-methyl-2-{4-[3-(methylsulfonyl)phenoxy]phenyl}-5-(trifluoromethyl)quinoxaline] | 6400 | > 1000 |
| Cc1nc2c(C(F)(F)F)cccc2nc1-c1cc(Oc2ccc(S(C)(=O)=O)cc2)ccc1Cl [Example 42, 2-{2-chloro-5-[4-(methylsulfonyl)phenoxy]phenyl}-3-methyl-5-(trifluoromethyl)quinoxaline] | 745 | 1890 |
| Cc1nc2cccc(C(F)(F)F)c2nc1-c1ccc(-c2cccc(S(C)(=O)=O)c2)cc1 [Example 4, 2-methyl-3-[3′-(methylsulfonyl)biphenyl-4-yl]-5-(trifluoromethyl)quinoxaline] | 373 | > 1000 |
| Cc1nc2cccc(C(F)(F)F)c2nc1-c1cc(Oc2cccc(S(=O)(=O)CCCO)c2)ccc1Cl [Example 63, 3-[(3-{4-chloro-3-[3-methyl-8-(trifluoromethyl)quinoxalin-2-yl]phenoxy}phenyl)sulfonyl]-propan-1-ol] | 48 | 979 |
